In assay [1] the test system is wire worm (Agriotes sp.) larvae. The assay is described as follows: Efficacy test of corn seed treatment against Agriotes sp. The class given is in vivo. The note with it: corn seeds coated, 42 days; for Healthy stock ratio: 50 g compound per 50,000 seeds, 12 larvae per 12-seed container, outdoors. An excerpt: Efficacy test of corn seed treatment against Agriotes sp.
The compound (1) (30 parts), tristyryl-based surfactant (6.0 parts), dioctylsulfosuccinate metal salt (1.5 parts), silicone-based defoamer (1.2 parts), xanthan gum (0.2 parts), 1,2-benzisothiazolin-3-one (0.1 parts), propylene glycol (5.0 parts), and water (56 parts) were mixed to prepare a reagent solution.
Corn seeds were coated with the reagent solution so that the treatment amount of the compound (1) was 50 g per 50,000 seeds.
Further, corn seeds were similarly coated with tefluthrin as a control agent so that the treatment amount was 10 g per 50,000 seeds.
The treated seeds were planted in a 12-seed container and inoculated with 12 wire worm (Agriotes sp.) larvae. The container was placed outdoors, and 42 days later, the number of healthy stocks and the number of damaged stocks were investigated to determine the efficacy. The test was repeated 4 times.
The healthy stock ratio was calculated using the following formula.
Healthy stock ratio (%)=100×(number of healthy stocks/number of seeds)

The next assay deals with Phyllotreta striolata. The assay is described as follows: Efficacy test of rape seed treatment against Phyllotreta striolata. The class given is in vivo. The settings on record: rape seeds coated, 10 g per 100 kg of seeds; inoculated 14 days after planting; 6 days after releasing the insects; 25° C., humidity 65%. An excerpt: Efficacy test of rape seed treatment against Phyllotreta striolata
The compound (I) (30 parts), tristyryl-based surfactant (6.0 parts), dioctylsulfosuccinate metal salt (1.5 parts), silicone-based defoamer (1.2 parts), xanthan gum (0.2 parts), 1,2-benzisothiazolin-3-one (0.1 parts), propylene glycol (5.0 parts), and water (56 parts) were mixed to prepare a reagent solution.
Rape seeds were coated with the reagent solution so that the treatment amount of the compound (I) was 10 g per 100 kg of seeds.
The treated seeds were planted in a 10-seed pot and raised in a greenhouse for 14 days. After that, each pot was inoculated with 5 Phyllotreta striolata. The pots were stored in a constant temperature room at a temperature of 25° C. and at a humidity of 65%.
The life/death determination was made 6 days after releasing the insects, and the insecticidal rate was calculated by the following formula. The test was repeated 3 times.
Insecticidal rate (%)=(number of dead insects/number of test insects)×100

The compound `Cc1c(F)c(F)c(COC(=O)[C@@H]2[C@H](/C=C(\Cl)C(F)(F)F)C2(C)C)c(F)c1F` (racemic) [tefluthrin, reference compound] returned a healthy stock rate in assay [1] (control agent, 10 g per 50,000 seeds) of 62.5%.
With `CCS(=O)(=O)c1cc(C2CC2)cnc1-c1ncc(C=C(Cl)C(F)(F)F)n1C` [formula (II)], the Healthy stock ratio in assay [1] came to 83.3%. The Insecticidal rate in the assay on Phyllotreta striolata came to 100%.
As for `CCS(=O)(=O)c1cc(C2CC2)cnc1-c1ncc(C(F)C(F)(C(F)(F)F)C(F)(F)F)n1C` (centres unmarked) [formula (III)], the Healthy stock ratio in assay [1] (unit not given) was 81.3. The Insecticidal rate in the assay on Phyllotreta striolata was found to be 100%.

Values taken from patent US20240108004A1, “METHOD FOR CONTROLLING INSECTS IN CROP PLANTS, SEEDS AND COMPOSITION” (Nippon Soda Co., Ltd., priority 2021, published 2024).
